Source: US20220104492A1, “PYRIDAZINIUM COMPOUNDS FOR USE IN A METHOD OF CONTROLLING UNWANTED PLANT GROWTH” (SYNGENTA CROP PROTECTION AG, priority 2019, published 2022)
Where a name gives a salt, the structure may show the parent alone.

Assays:
Assay in all cases: Post-emergence efficacy (glasshouse, spray application)
Format in all cases: in vivo
[1] = tested on: Ipomoea hederacea (IPOHE); conditions: 312 h, Application rate 500 g/Ha, evaluated after 13 days, 100=total damage to plant, 0=no damage to plant, read-out: Control of weed species after post-emergence application, IPOHE
Experimental: (§1) Seeds of a variety of test species were sown in standard soil in pots. After cultivation for 14 days (post-emergence) under controlled conditions in a glasshouse (at 24/16° C., day/night; 14 hours light; 65 humidity), the plants were sprayed with an aqueous spray solution derived from the dissolution of the technical active ingredient formula (I) in a small amount of acetone and a special solvent and emulsifier mixture referred to as IF50 (11.12% Emulsogen EL360 TM+44.44% N-methylpyrrolidone+44.44% Dowanol DPM glycol ether), to create a 50 g/l solution which was then diluted to required concentration using a solution of 0.25% or 1% Empicol ESC70 (Sodium lauryl ether sulphate)+1% ammonium sulphate in water as diluent.
(§2) The test plants were then grown in a glasshouse under controlled conditions (at 24/16° C., day/night; 14 hours light; 65% humidity) and watered twice daily. After 13 days the test was evaluated (100=total damage to plant; 0=no damage to plant).
(§3) Ipomoea hederacea (IPOHE), Euphorbia heterophylla (EPHHL), Chenopodium album (CHEAL), Amaranthus palmeri (AMAPA), Lolium perenne (LOLPE), Digitaria sanguinalis (DIGSA), Eleusine indica (ELEIN), Echinochloa crus-galli (ECHCG), Setaria faberi (SETFA)

Eleusine indica (ELEIN) = conditions: 312 h, Application rate 500 g/Ha, evaluated after 13 days, 100=total damage to plant, 0=no damage to plant, read-out: Control of weed species after post-emergence application, ELEIN
Experimental: as §1, §2, §3

Setaria faberi (SETFA) = conditions: 312 h, Application rate 500 g/Ha, evaluated after 13 days, 100=total damage to plant, 0=no damage to plant, read-out: Control of weed species after post-emergence application, SETFA
Experimental: as §1, §2, §3

[2] = tested on: Digitaria sanguinalis (DIGSA); conditions: 312 h, Application rate 500 g/Ha, evaluated after 13 days, 100=total damage to plant, 0=no damage to plant, read-out: Control of weed species after post-emergence application, DIGSA
Experimental: as §1, §2, §3

[3] = tested on: Echinochloa crus-galli (ECHCG); conditions: 312 h, Application rate 500 g/Ha, evaluated after 13 days, 100=total damage to plant, 0=no damage to plant, read-out: Control of weed species after post-emergence application, ECHCG
Experimental: as §1, §2, §3

[4] = tested on: Chenopodium album (CHEAL); conditions: 312 h, Application rate 500 g/Ha, evaluated after 13 days, 100=total damage to plant, 0=no damage to plant, read-out: Control of weed species after post-emergence application, CHEAL
Experimental: as §1, §2, §3

[5] = tested on: Euphorbia heterophylla (EPHHL); conditions: 312 h, Application rate 500 g/Ha, evaluated after 13 days, 100=total damage to plant, 0=no damage to plant, read-out: Control of weed species after post-emergence application, EPHHL
Experimental: as §1, §2, §3

Lolium perenne (LOLPE) = conditions: 312 h, Application rate 500 g/Ha, evaluated after 13 days, 100=total damage to plant, 0=no damage to plant, read-out: Control of weed species after post-emergence application, LOLPE
Experimental: as §1, §2, §3

[6] = tested on: Amaranthus palmeri (AMAPA); conditions: 312 h, Application rate 500 g/Ha, evaluated after 13 days, 100=total damage to plant, 0=no damage to plant, read-out: Control of weed species after post-emergence application, AMAPA
Experimental: as §1, §2, §3

SMILES	pest or weed control at 500 g/ha [1]	pest or weed control at 500 g/ha (Eleusine indica (ELEIN))	pest or weed control at 500 g/ha (Setaria faberi (SETFA))	pest or weed control at 500 g/ha [2]	pest or weed control at 500 g/ha [3]	pest or weed control at 500 g/ha [4]	pest or weed control at 500 g/ha [5]	pest or weed control at 500 g/ha (Lolium perenne (LOLPE))	pest or weed control at 500 g/ha [6]
CN(CC(=O)O)C(=O)C[n+]1ccc(-c2ncccn2)cn1 [Compound A8, 2-[methyl-[2-(4-pyrimidin-2-ylpyridazin-1-ium-1-yl)acetyl]amino]acetic acid 2,2,2-trifluoroacetate]	60%	90%	70%	70%	80%	100%	100%	40%	100%
O=C(O)CCC(=O)C[n+]1ccc(-c2ncccn2)cn1 [Compound A9, 4-oxo-5-(4-pyrimidin-2-ylpyridazin-1-ium-1-yl)pentanoic acid chloride]	40%	70%	30%	50%	70%	70%	70%	0%	70%
O=C(O)CNC(=O)CNC(=O)C[n+]1ccc(-c2ncccn2)cn1 [Compound A10]	40%	90%	80%	80%	70%	60%	90%	40%	90%
O=C(C[n+]1ccc(-c2ncccn2)cn1)NC(Cc1ccccc1)C(=O)O (stereo not drawn) [Compound A11]	20%	90%	50%	90%	70%	50%	90%	20%	100%
CC(NC(=O)C[n+]1ccc(-c2ncccn2)cn1)C(=O)O (stereo not drawn) [Compound A12]	70%	100%	70%	90%	70%	100%	100%	50%	100%
O=C(C[n+]1ccc(-c2ncccn2)cn1)NC(C(=O)O)c1ccccc1 (stereo not drawn) [Compound A13]	40%	90%	70%	100%	80%	50%	50%	30%	100%
O=C(O)CNC(=O)CC[n+]1ccc(-c2ncccn2)cn1 [Compound A14]	100%	100%	100%	100%	100%	90%	100%	100%	100%
O=C(O)CS(=O)(=O)CC[n+]1ccc(-c2ncccn2)cn1 [Compound A15]	10%	70%	50%	60%	20%	20%	70%	10%	70%
O=C(O)CSCC[n+]1ccc(-c2cccnn2)cn1 [Compound A18]	70%	100%	60%	60%	60%	90%	100%	70%	100%
CS(=O)(=O)N(CC[n+]1ccc(-c2ncccn2)cn1)CC(=O)O [Compound A19, 2-[methylsulfonyl-[2-(4-pyrimidin-2-ylpyridazin-1-ium-1-yl)ethyl]amino]acetic acid 2,2,2-trifluoroacetate]	70%	100%	70%	70%	40%	90%	80%	30%	100%
O=C(O)CNC(=O)C[n+]1ccc(-c2ccncc2)cn1 [Compound A20]	70%	60%	70%	70%	60%	90%	90%	30%	100%
O=S(=O)([O-])OCCOCC[n+]1ccc(-c2ncccn2)cn1 [Compound A21, 2-[2-(4-pyrimidin-2-ylpyridazin-1-ium-1-yl)ethoxy]ethyl sulfate]	40%	80%	70%	70%	80%	70%	90%	40%	100%
O=C(O)CNC(=O)CC[n+]1ccc(-c2ccncn2)cn1 [Compound A23]	100%	100%	60%	100%	60%	70%	90%	40%	100%
CN(CC(=O)O)C(=O)CC[n+]1ccc(-c2ncccn2)cn1 [Compound A24]	40%	50%	70%	100%	40%	90%	90%	30%	90%
CC(NC(=O)CC[n+]1ccc(-c2ncccn2)cn1)C(=O)O (stereo not drawn) [Compound A25]	40%	100%	90%	100%	90%	100%	100%	70%	100%
O=C(O)CNC(=O)C[n+]1ccc(-c2ccccn2)cn1 [Compound A26]	40%	80%	80%	70%	90%	100%	100%	40%	100%
O=C(O)CNC(=O)CC[n+]1ccc(-c2cccnn2)cn1 [Compound A27]	40%	60%	100%	100%	90%	100%	90%	70%	100%
